# Measured values as given in patent US20070249607A1, “NK-1 AND SEROTONIN TRANSPORTER INHIBITORS” (Bristol-Myers Squibb Company, priority 2006, published 2007).
# Where two headings read alike, the source gives them in different places.
# What was measured:
# [1] = target: T1, neurokinin-1 (NK-1) receptor (Homo sapiens, UniProt P25103); assay: NK-1 Binding assay ([125I] Substance P competition, U373 cell membranes); conditions: Table 2; U373 membranes, [125I] Substance P displacement; read-out: NK-1 IC50
# T1 construct: a human glioblastoma-astrocytoma cell line that endogenously expresses the neurokinin-1 (NK-1) receptor; endogenous in cells; host or cells: U373 human glioblastoma-astrocytoma cells (membranes)
# In short: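 Membranes were prepared from U373 human glioblastoma-astrocytoma cells, which express NK-1 endogenously, in 50 mM Tris-HCl pH 7.4 with 3 mM MnCl2, BSA and protease inhibitors. IC50 taken as the midpoint of the specific-binding displacement curve.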
# [2] = target: T2, human serotonin transporters (Homo sapiens, UniProt P31645); assay: Serotonin transporter binding assay ([3H]-citalopram competition, HEK-hSERT cell membranes)
# T2 construct: expressed in transfected cells
# In short: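 Competition binding against 1 nM [3H]-citalopram (1 hr, 25 °C, Tris pH 7.4 with NaCl/KCl) on stably transfected HEK-hSERT cell membranes, bound ligand collected on filters. Fluoxetine (10 μM) defined nonspecific binding; curve midpoint gives IC50, convertible to Ki by Cheng–Prusoff.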
# [3] = Table 2, HEK-hSERT membranes, [3H]-citalopram displacement, read-out: SERT IC50
# T2 sequence (P31645 whole entry): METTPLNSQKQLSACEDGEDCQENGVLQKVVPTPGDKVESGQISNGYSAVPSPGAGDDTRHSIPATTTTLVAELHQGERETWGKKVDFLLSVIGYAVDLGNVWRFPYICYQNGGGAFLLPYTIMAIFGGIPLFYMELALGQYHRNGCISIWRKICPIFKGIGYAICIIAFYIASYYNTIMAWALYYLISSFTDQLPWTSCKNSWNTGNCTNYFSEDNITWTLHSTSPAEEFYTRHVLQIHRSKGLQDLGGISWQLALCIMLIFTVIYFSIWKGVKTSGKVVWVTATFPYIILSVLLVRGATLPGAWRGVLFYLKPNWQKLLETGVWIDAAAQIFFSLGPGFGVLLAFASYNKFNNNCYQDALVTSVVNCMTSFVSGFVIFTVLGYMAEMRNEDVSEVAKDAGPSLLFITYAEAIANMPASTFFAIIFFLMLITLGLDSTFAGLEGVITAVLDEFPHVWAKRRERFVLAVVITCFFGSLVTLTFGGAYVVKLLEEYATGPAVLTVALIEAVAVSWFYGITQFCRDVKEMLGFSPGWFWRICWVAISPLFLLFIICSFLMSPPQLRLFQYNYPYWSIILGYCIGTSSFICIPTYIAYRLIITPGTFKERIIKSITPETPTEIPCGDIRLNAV
# T1 sequence (P25103 whole entry): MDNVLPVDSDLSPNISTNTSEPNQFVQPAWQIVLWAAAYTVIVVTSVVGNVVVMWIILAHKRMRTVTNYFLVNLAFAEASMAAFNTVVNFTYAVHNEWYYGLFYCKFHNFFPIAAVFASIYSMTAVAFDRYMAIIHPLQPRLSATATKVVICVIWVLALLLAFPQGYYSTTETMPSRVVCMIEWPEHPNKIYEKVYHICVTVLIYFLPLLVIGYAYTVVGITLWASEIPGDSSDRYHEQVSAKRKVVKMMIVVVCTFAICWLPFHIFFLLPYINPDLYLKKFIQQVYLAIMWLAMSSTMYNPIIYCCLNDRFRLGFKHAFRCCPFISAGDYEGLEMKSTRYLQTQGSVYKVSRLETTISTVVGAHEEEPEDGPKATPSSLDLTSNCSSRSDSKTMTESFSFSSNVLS
IC50 [1] [nM],"IC50 [2, 3] [nM]",Structure (SMILES),IC50 [2] [nM]
0.01 to 100,0.01 to 100,CCCCOc1ccc(-c2cc(COCC3(c4ccccc4)CCNCC3)cc(C(F)(F)F)c2)cc1,
> 300,0.01 to 100,FC(F)(F)Oc1cccc(-c2cc(COCC3(c4ccccc4)CCNCC3)cc(C(F)(F)F)c2)c1,
> 300,100 to 300,CC(C)Cc1ccc(-c2cc(COCC3(c4ccccc4)CCNCC3)cc(C(F)(F)F)c2)cc1,
0.01 to 100,0.01 to 100,Fc1cccc(-c2cc(COCC3(c4ccccc4)CCNCC3)cc(C(F)(F)F)c2)c1F,
0.01 to 100,0.01 to 100,Fc1ccc(F)c(-c2cc(COCC3(c4ccccc4)CCNCC3)cc(C(F)(F)F)c2)c1,
> 300,0.01 to 100,FC(F)(F)c1cc(COCC2(c3ccccc3)CCNCC2)cc(-c2cc(Cl)ccc2Cl)c1,
> 300,0.01 to 100,Cc1ccc(C)c(-c2cc(COCC3(c4ccccc4)CCNCC3)cc(C(F)(F)F)c2)c1,
100 to 300,0.01 to 100,COc1ccc(F)cc1-c1cc(COCC2(c3ccccc3)CCNCC2)cc(C(F)(F)F)c1,
100 to 300,0.01 to 100,COC(=O)c1cccc(-c2cc(COCC3(c4ccccc4)CCNCC3)cc(C(F)(F)F)c2)c1,
> 300,100 to 300,CC(C)OC(=O)c1cccc(-c2cc(COCC3(c4ccccc4)CCNCC3)cc(C(F)(F)F)c2)c1,
0.01 to 100,0.01 to 100,O=C(Nc1ccc(-c2cc(COCC3(c4ccccc4)CCNCC3)cc(C(F)(F)F)c2)cc1)OCc1ccccc1,
0.01 to 100,0.01 to 100,FC(F)(F)c1cc(COCC2(c3ccccc3)CCNCC2)cc(-c2cccc(OCc3ccccc3)c2)c1,
0.01 to 100,0.01 to 100,Fc1cc(-c2cc(COCC3(c4ccccc4)CCNCC3)cc(C(F)(F)F)c2)cc(F)c1F,
100 to 300,0.01 to 100,CCS(=O)(=O)c1ccc(-c2cc(COCC3(c4ccccc4)CCNCC3)cc(C(F)(F)F)c2)cc1,
0.01 to 100,0.01 to 100,COc1cc(-c2cc(COCC3(c4ccccc4)CCNCC3)cc(C(F)(F)F)c2)ccc1O,
0.01 to 100,0.01 to 100,CCCCc1ccc(-c2cc(COCC3(c4ccccc4)CCNCC3)cc(C(F)(F)F)c2)cc1,
> 300,0.01 to 100,CC(C)c1ccc(-c2cc(COCC3(c4ccccc4)CCNCC3)cc(C(F)(F)F)c2)cc1,
0.01 to 100,0.01 to 100,O=C(OCc1ccccc1)c1ccc(-c2cc(COCC3(c4ccccc4)CCNCC3)cc(C(F)(F)F)c2)cc1,
100 to 300,0.01 to 100,CCOC(=O)c1cccc(-c2cc(COCC3(c4ccccc4)CCNCC3)cc(C(F)(F)F)c2)c1,
> 300,0.01 to 100,O=C(OCc1ccccc1)c1cccc(-c2cc(COCC3(c4ccccc4)CCNCC3)cc(C(F)(F)F)c2)c1,
0.01 to 100,0.01 to 100,O=[N+]([O-])c1ccccc1-c1cc(COCC2(c3ccccc3)CCNCC2)cc(C(F)(F)F)c1,

IC50 [1] [nM],"IC50 [2, 3] [nM]",Structure (SMILES),IC50 [2] [nM]
0.01 to 100,0.01 to 100,CC(=O)Nc1ccc(-c2cc(COCC3(c4ccccc4)CCNCC3)cc(C(F)(F)F)c2)cc1,
0.01 to 100,0.01 to 100,COc1cc(COCC2(c3ccccc3)CCNCC2)cc(-c2ccc(F)cc2)c1,
0.01 to 100,0.01 to 100,COc1c(C)cc(-c2ccc(C#N)cc2)cc1COCC1(c2ccccc2)CCNCC1,
0.01 to 100,0.01 to 100,COc1ccc(-c2cc(COCC3(c4ccccc4)CCNCC3)cc(C(F)(F)F)c2)nn1,
0.01 to 100,0.01 to 100,Cc1cc(-c2cc(COCC3(c4ccccc4)CCNCC3)cc(C(F)(F)F)c2)ccc1C#N,
0.01 to 100,0.01 to 100,N#Cc1ccc(-c2cc(COCC3(c4ccccc4)CCNCC3)cc(C(F)(F)F)c2)cc1Cl,
0.01 to 100,0.01 to 100,N#Cc1c(F)c(F)c(-c2cc(COCC3(c4ccccc4)CCNCC3)cc(C(F)(F)F)c2)c(F)c1F,
0.01 to 100,0.01 to 100,N#Cc1c(F)cc(-c2cc(COCC3(c4ccccc4)CCNCC3)cc(C(F)(F)F)c2)cc1F,
0.01 to 100,0.01 to 100,FC(F)(F)c1cc(COCC2(c3ccccc3)CCNCC2)cc(-c2cnc(Cl)nc2)c1,
0.01 to 100,0.01 to 100,COc1cc(F)c(-c2cc(COCC3(c4ccccc4)CCNCC3)cc(C(F)(F)F)c2)cc1F,
0.01 to 100,0.01 to 100,COc1cc(-c2cc(COCC3(c4ccccc4)CCNCC3)cc(C(F)(F)F)c2)ccc1C#N,
0.01 to 100,0.01 to 100,N#Cc1cc(F)c(-c2cc(COCC3(c4ccccc4)CCNCC3)cc(C(F)(F)F)c2)cc1F,
0.01 to 100,0.01 to 100,COc1c(F)cc(-c2cc(COCC3(c4ccccc4)CCNCC3)cc(C(F)(F)F)c2)cc1F,
0.01 to 100,0.01 to 100,COc1ccc(-c2cc(COCC3(c4ccccc4)CCNCC3)cc(C(F)(F)F)c2)c(F)c1F,
0.01 to 100,0.01 to 100,N#Cc1ccc(-c2cc(COCC3(c4ccc(F)cc4C#N)CCNCC3)cc(C(F)(F)F)c2)cc1,
0.01 to 100,100 to 300,N#Cc1ccc(-c2cc(COCC3(c4ccc(F)cc4-c4ccccc4)CCNCC3)cc(C(F)(F)F)c2)cc1,
0.01 to 100,0.01 to 100,N#Cc1ccc(-c2cc(COCC3(c4ccc(F)cc4Br)CCNCC3)cc(C(F)(F)F)c2)cc1,
0.01 to 100,0.01 to 100,N#Cc1ccc(-c2cc(COCC3(c4cccc(Cl)c4)CCNCC3)cc(C(F)(F)F)c2)cc1,
0.01 to 100,0.01 to 100,N#Cc1ccc(-c2cc(COCC3(c4ccc(F)c(F)c4)CCNCC3)cc(C(F)(F)F)c2)cc1,
0.01 to 100,0.01 to 100,N#Cc1ccc(-c2cc(COCC3(c4ccc(Br)cc4)CCNCC3)cc(C(F)(F)F)c2)cc1,
0.01 to 100,0.01 to 100,N#Cc1ccc(-c2cc(COCC3(c4cccc(Br)c4)CCNCC3)cc(C(F)(F)F)c2)cc1,

Structure (SMILES),IC50 [1] [nM],"IC50 [2, 3] [nM]",IC50 [2] [nM]
N#Cc1ccc(-c2cc(COCC3(c4ccccc4)CCN(C4CC4)CC3)cc(C(F)(F)F)c2)cc1,0.01 to 100,> 300,
CN1CCC(COCc2cc(-c3cc(F)c(C#N)c(F)c3)cc(C(F)(F)F)c2)(c2ccccc2)CC1,0.01 to 100,,0.01 to 100
CN1CCC(COCc2cc(-c3c(F)c(F)c(C#N)c(F)c3F)cc(C(F)(F)F)c2)(c2ccccc2)CC1,0.01 to 100,,0.01 to 100
CN1CCC(COCc2cc(-c3ccc(C#N)c(Cl)c3)cc(C(F)(F)F)c2)(c2ccccc2)CC1,0.01 to 100,,0.01 to 100
Cc1cc(-c2cc(COCC3(c4ccccc4)CCN(C)CC3)cc(C(F)(F)F)c2)ccc1C#N,0.01 to 100,,0.01 to 100
C[C@@H](OCC1(c2ccccc2)CCN(C)CC1)c1cc(-c2ccc(C#N)cc2)cc(C(F)(F)F)c1,0.01 to 100,,0.01 to 100
CN1CCC(COCc2cc(-c3ccc(C#N)cc3)cc(C(F)(F)F)c2)(c2ccccc2F)CC1,0.01 to 100,,0.01 to 100
COc1c(F)cc(-c2cc(COCC3(c4ccccc4)CCN(C)CC3)cc(C(F)(F)F)c2)cc1F,0.01 to 100,,0.01 to 100
COc1cc(-c2cc(COCC3(c4ccccc4)CCN(C)CC3)cc(C(F)(F)F)c2)ccc1C#N,0.01 to 100,,0.01 to 100
COc1cc(F)c(-c2cc(COCC3(c4ccccc4)CCN(C)CC3)cc(C(F)(F)F)c2)cc1F,0.01 to 100,,0.01 to 100
CN1CCC(COCc2cc(-c3cc(F)c(C#N)cc3F)cc(C(F)(F)F)c2)(c2ccccc2)CC1,0.01 to 100,,0.01 to 100
CN1CCC(COCc2cc(-c3ccc(C#N)cc3)cc(C(F)(F)F)c2)(c2ccc(F)cc2F)CC1,0.01 to 100,,0.01 to 100
COc1ccc(-c2cc(COCC3(c4ccccc4)CCN(C)CC3)cc(C(F)(F)F)c2)c(F)c1F,0.01 to 100,,0.01 to 100
COc1ccc(-c2cc(COCC3(c4ccccc4)CCN(C)CC3)cc(C(F)(F)F)c2)cc1C,0.01 to 100,,0.01 to 100
CN1CCC(COCc2cc(-c3ccc(C#N)cc3)cc(C(F)(F)F)c2)(c2cccc(C#N)c2)CC1,0.01 to 100,,0.01 to 100
CN1CCC(COCc2cc(-c3ccc(C#N)cc3)cc(C(F)(F)F)c2)(c2cccnc2)CC1,0.01 to 100,,0.01 to 100
CN1CCC(COCc2cc(-c3ccc(C#N)cc3)cc(C(F)(F)F)c2)(c2ccc(F)c(F)c2)CC1,0.01 to 100,,0.01 to 100
CN1CCC(COCc2cc(-c3ccc(C#N)cc3)cc(C(F)(F)F)c2)(c2ccc(Br)cc2)CC1,0.01 to 100,,0.01 to 100
CN1CCC(COCc2cc(-c3ccc(C#N)cc3)cc(C(F)(F)F)c2)(c2cccc(Br)c2)CC1,0.01 to 100,,0.01 to 100
CN1CCC(COCc2cc(-c3ccc(C#N)cc3)cc(C(F)(F)F)c2)(c2ccc(C#N)cc2)CC1,0.01 to 100,,0.01 to 100
CN1CCC(COCc2cc(-c3ccc(C#N)cc3)cc(C(F)(F)F)c2)(c2cccc(Cl)c2)CC1,0.01 to 100,,0.01 to 100
CN1CCC(COCc2cc(-c3ccc(C#N)cc3)cc(C(F)(F)F)c2)(c2cccc(C(F)(F)F)c2)CC1,0.01 to 100,,0.01 to 100
Cc1cc(-c2cc(COCC3(c4cccnc4)CCN(C)CC3)cc(C(F)(F)F)c2)ccc1C#N,0.01 to 100,,0.01 to 100
CN1CCC(COCc2cc(-c3ccc(C#N)cc3)cc(C(F)(F)F)c2)(c2ccncc2)CC1,0.01 to 100,,0.01 to 100
CN1CCC(COCc2cc(-c3ccc(C#N)cc3)cc(C(F)(F)F)c2)(c2ccc(-c3ccco3)cc2)CC1,0.01 to 100,,100 to 300
COc1cccc(C2(COCc3cc(-c4ccc(C#N)cc4)cc(C(F)(F)F)c3)CCN(C)CC2)c1,0.01 to 100,,0.01 to 100
